In assay [1] the test system is HCV genotype 1a (H77 strain) replicon in HUH-7 cells. Nature of the assay: HCV replicon luciferase reporter assay, genotype 1a. Type of assay: cell-based. To be noted: Hepatitis C virus, Huh-7, 72 h, HCV genotype 1a replicon luciferase, 3 days incubation, read-out: LE_1a (EC50, range). The method in brief: (§1)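 Replicon inhibition for both genotypes was measured as Renilla luciferase signal (EnduRen, 7.5 μM final, 2 h) after 3-day, 37° C exposure of replicon-bearing HUH-7 cells in 4% FCS DMEM, 0.5% DMSO. The 1b construct carries S1179I; the 1a H77 construct carries P1496L and S2204I. Twenty-point, 3-fold dilutions were fitted four-parametrically for EC50, and CC50 was taken from multiplexed Cell Titer-Blue.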

In assay [2] the test system is HCV genotype 1b (Con1) replicon in HUH-7 cells. The experiment in a line: HCV replicon luciferase reporter assay, genotype 1b. Type of assay: cell-based. To be noted: Hepatitis C virus, Huh-7, 72 h, HCV genotype 1b replicon luciferase, 3 days incubation, read-out: LE_1b (EC50, range). The method in brief: as §1
Background: Replicon systems follow genome replication, usually without infectious particles.

Bounds are passed on as bounds.

Broadly, the EC50 is the concentration giving half of the maximal effect. With `COc1ccc2c(O[C@@H]3C[C@H]4C(=O)N[C@]5(C(=O)NS(=O)(=O)C6(C)CC6)C[C@H]5/C=C\CC[C@H](C)C[C@@H](C)[C@H](NC(=O)OC(C)(C)C(F)(F)F)C(=O)N4C3)nc(-c3ccc(N4CCOCC4)cc3)cc2c1` [Compound 5198, 1,1,1-trifluoro-2-methylpropan-2-yl((2R,6S,7R,9S,13aS,14aR,16aS,Z)-2-((6-methoxy-3-(4-morpholinophenyl)isoquinolin-1-yl)oxy)-7,9-dimethyl-14a-(((1-methylcyclopropyl)sulfonyl)carbamoyl)-5,16-dioxo-1,2,3,5,6,7,8,9,10,11,13a,14,14a,15,16,16a-hexadecahydrocyclopropa[e]pyrrolo[1,2-a][1,4]diazacyclopentadecin-6-yl)carbamate], the results for the concentration giving a half-maximal response (EC50) in assay [1] and in assay [2] were 4.82 to 103 nM and under 5.46 nM, respectively.
In the case of `COc1ccc2c(O[C@@H]3C[C@H]4C(=O)N[C@]5(C(=O)NS(=O)(=O)C6(C)CC6)C[C@H]5/C=C\CC[C@@H](C)C[C@@H](C)[C@H](NC(=O)OC(C)(C)C(F)(F)F)C(=O)N4C3)nc(-c3ccc(N4CCOCC4)cc3)cc2c1` [Compound 5199, 1,1,1-trifluoro-2-methylpropan-2-yl((2R,6S,7R,9R,13aS,14aR,16aS,Z)-2-((6-methoxy-3-(4-morpholinophenyl)isoquinolin-1-yl)oxy)-7,9-dimethyl-14a-(((1-methylcyclopropyl)sulfonyl)carbamoyl)-5,16-dioxo-1,2,3,5,6,7,8,9,10,11,13a,14,14a,15,16,16a-hexadecahydrocyclopropa[e]pyrrolo[1,2-a][1,4]diazacyclopentadecin-6-yl)carbamate], the EC50 in assay [1] and in assay [2] was under 5.46 nM throughout.
Regarding `COc1ccc2c(O[C@@H]3C[C@H]4C(=O)N[C@]5(C(=O)NS(=O)(=O)C6CC6)C[C@H]5/C=C\CC[C@H](C)C[C@@H](C)[C@H](NC(=O)OC(C)(C)C)C(=O)N4C3)nc(-c3ccc(OC(C)C)cn3)cc2c1` [Compound 5200, tert-butyl ((2R,6S,7R,9S,13aS,14aR,16aS,Z)-14a-((cyclopropylsulfonyl)carbamoyl)-2-((3-(5-isopropoxypyridin-2-yl)-6-methoxyisoquinolin-1-yl)oxy)-7,9-dimethyl-5,16-dioxo-1,2,3,5,6,7,8,9,10,11,13a,14,14a,15,16,16a-hexadecahydrocyclopropa[e]pyrrolo[1,2-a][1,4]diazacyclopentadecin-6-yl)carbamate], the EC50 in assay [1] and in assay [2] was under 5.46 nM in each case.
With `COc1ccc2c(O[C@@H]3C[C@H]4C(=O)N[C@]5(C(=O)NS(=O)(=O)C6CC6)C[C@H]5/C=C\CC[C@@H](C)C[C@@H](C)[C@H](NC(=O)OC(C)(C)C)C(=O)N4C3)nc(-c3ccc(OC(C)C)cn3)cc2c1` [Compound 5201, tert-butyl ((2R,6S,7R,9R,13aS,14aR,16aS,Z)-14a-((cyclopropylsulfonyl)carbamoyl)-2-((3-(5-isopropoxypyridin-2-yl)-6-methoxyisoquinolin-1-yl)oxy)-7,9-dimethyl-5,16-dioxo-1,2,3,5,6,7,8,9,10,11,13a,14,14a,15,16,16a-hexadecahydrocyclopropa[e]pyrrolo[1,2-a][1,4]diazacyclopentadecin-6-yl)carbamate], the EC50 in assay [1] and in assay [2] was under 5.46 nM throughout.
As to `COc1ccc2c(O[C@@H]3C[C@H]4C(=O)N[C@]5(C(=O)NS(=O)(=O)C6CC6)C[C@H]5/C=C\CC[C@H](C)C[C@@H](C)[C@H](NC(=O)OC(C)(C)C(F)(F)F)C(=O)N4C3)nc(-c3ccc(OC(C)C)cn3)cc2c1` [Compound 5202, 1,1,1-trifluoro-2-methylpropan-2-yl((2R,6S,7R,9S,13aS,14aR,16aS,Z)-14a-((cyclopropylsulfonyl)carbamoyl)-2-((3-(5-isopropoxypyridin-2-yl)-6-methoxyisoquinolin-1-yl)oxy)-7,9-dimethyl-5,16-dioxo-1,2,3,5,6,7,8,9,10,11,13a,14,14a,15,16,16a-hexadecahydrocyclopropa[e]pyrrolo[1,2-a][1,4]diazacyclopentadecin-6-yl)carbamate], the EC50 in assay [1] and in assay [2] was under 5.46 nM throughout.

The values are drawn from patent publication US9499550B2 (BRISTOL-MYERS SQUIBB COMPANY, priority 2012, dated 2016).
